Reference: ChEMBL document CHEMBL1201862, “PubChem BioAssay data set” (2004)
Calls of active or inactive are those of the source.

Assays:
Streptococcus = assay: Group A Streptococcus viability loss, dose response, counter-screen for streptokinase expression inhibitor project, luminescence, BacTiterGlo (AID 1915); assay type: functional, organism-based;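 also: potency for reduction of bacterial viability or growth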
[1] = biological target: G-protein coupled receptor 35 (Homo sapiens, UniProt Q9HC97); assay: GPR35 antagonists blocking zaprinast-driven arrestin recruitment, primary screen, imaging, U2OS, beta-arrestin-GFP, zaprinast agonist (AID 2058); assay type: functional;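 also: antagonist potency meaning inhibition of agonist-induced arrestin redistribution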
Chain of G-protein coupled receptor 35 (Q9HC97 whole entry): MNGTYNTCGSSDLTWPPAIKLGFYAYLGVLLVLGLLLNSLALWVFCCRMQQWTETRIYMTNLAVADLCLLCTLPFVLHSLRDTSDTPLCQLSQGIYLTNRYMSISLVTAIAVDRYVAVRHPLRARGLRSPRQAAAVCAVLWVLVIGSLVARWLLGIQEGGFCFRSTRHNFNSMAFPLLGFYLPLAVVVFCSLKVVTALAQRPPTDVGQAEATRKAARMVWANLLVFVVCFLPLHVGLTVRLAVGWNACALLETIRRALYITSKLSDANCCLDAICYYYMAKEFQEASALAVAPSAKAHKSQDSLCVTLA

[2] = test system: Streptococcus sp. 'group A'; assay: growth inhibition of control SK(-) GAS strain, dose response, counter-screen for streptokinase expression inhibitor project, luminescence, kanamycin, BacTiterGlo, confirmation (AID 1900); assay type: functional, organism-based
Streptokinase A = biological target: T1, Streptokinase A (Streptococcus pyogenes serotype M1, UniProt P10520); assay: S. pyogenes streptokinase expression inhibitors, potency, dose response, plasminogen activation absorbance, OD405 (AID 1914); assay type: functional, Streptococcus pyogenes M1 GAS;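 also: secreted streptokinase activity via plasminogen activation per viability signal from cell pellet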
T1 sequence (P10520 whole entry): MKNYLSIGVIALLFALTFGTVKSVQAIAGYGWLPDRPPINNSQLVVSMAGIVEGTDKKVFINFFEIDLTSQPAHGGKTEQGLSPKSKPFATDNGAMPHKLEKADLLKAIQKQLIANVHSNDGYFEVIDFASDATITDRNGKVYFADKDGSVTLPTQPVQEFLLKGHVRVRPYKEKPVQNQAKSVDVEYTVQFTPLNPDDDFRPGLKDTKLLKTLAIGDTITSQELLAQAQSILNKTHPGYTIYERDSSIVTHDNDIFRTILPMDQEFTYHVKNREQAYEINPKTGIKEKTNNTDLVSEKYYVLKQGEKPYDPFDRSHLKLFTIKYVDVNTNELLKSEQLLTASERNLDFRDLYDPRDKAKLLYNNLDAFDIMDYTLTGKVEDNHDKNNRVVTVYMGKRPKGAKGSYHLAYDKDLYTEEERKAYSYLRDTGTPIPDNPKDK

[3] = biological target: Neurotensin receptor type 1 (Homo sapiens, UniProt P30989); assay type: functional;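 also: Image-based confirmatory dose-response assay measuring agonist activity at NTR1; NTR1-expressing U2OS osteosarcoma cells imaged for beta-arrestin GFP spot formation; agonist potency where compounds increase beta-arrestin recruitment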
Chain of Neurotensin receptor type 1 (P30989 whole entry): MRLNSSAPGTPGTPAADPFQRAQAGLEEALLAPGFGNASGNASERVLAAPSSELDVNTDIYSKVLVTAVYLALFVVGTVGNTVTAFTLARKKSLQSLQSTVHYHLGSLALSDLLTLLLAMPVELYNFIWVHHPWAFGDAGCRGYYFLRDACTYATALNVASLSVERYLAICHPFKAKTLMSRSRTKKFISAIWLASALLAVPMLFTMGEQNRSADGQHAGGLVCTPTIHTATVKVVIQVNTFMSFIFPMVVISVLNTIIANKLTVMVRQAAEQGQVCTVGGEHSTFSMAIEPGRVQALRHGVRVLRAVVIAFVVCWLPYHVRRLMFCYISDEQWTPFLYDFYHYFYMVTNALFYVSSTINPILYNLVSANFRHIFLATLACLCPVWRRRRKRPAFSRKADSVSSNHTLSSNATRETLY

[4] = biological target: T2, Replicative DNA helicase DnaB (Mycobacterium tuberculosis, UniProt P9WMR3); assay: DnaB intein splicing inhibitors, dose response, biochemical, cell-free fluorescence (AID 449749); assay type: functional
T2 sequence (P9WMR3 whole entry): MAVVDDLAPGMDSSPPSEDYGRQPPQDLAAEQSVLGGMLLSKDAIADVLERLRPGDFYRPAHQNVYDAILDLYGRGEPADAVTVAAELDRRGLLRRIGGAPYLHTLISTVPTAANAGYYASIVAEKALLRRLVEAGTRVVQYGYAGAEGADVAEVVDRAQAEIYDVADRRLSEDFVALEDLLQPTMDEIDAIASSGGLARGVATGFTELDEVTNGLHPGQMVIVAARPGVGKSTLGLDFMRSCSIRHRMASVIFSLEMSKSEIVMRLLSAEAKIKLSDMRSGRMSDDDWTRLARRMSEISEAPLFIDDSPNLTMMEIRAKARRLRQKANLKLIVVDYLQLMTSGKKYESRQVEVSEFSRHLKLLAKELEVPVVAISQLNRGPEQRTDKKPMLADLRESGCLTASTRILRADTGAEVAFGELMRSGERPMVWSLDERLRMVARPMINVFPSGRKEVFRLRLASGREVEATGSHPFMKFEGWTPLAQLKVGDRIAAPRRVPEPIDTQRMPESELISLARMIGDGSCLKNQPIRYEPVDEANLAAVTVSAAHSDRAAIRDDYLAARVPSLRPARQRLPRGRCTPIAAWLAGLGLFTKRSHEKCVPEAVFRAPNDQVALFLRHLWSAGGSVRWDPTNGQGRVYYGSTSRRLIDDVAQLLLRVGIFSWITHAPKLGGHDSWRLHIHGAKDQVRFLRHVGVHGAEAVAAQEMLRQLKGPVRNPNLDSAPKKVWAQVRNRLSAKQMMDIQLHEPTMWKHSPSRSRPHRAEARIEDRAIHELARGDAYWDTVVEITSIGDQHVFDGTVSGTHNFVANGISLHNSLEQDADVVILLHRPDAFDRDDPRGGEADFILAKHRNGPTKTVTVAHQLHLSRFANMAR

Protein RecA = biological target: T3, Protein RecA (Mycobacterium tuberculosis, UniProt P9WHJ3); assay: Fluorescence Cell-Free Homogeneous Dose Retest to Identify Inhibitors of RecA-Intein Splicing Activity. [Related pubchem assays (depositor defined):AID2097, AID2223, AID489010, AID492950]; assay type: functional
T3 sequence (P9WHJ3 whole entry): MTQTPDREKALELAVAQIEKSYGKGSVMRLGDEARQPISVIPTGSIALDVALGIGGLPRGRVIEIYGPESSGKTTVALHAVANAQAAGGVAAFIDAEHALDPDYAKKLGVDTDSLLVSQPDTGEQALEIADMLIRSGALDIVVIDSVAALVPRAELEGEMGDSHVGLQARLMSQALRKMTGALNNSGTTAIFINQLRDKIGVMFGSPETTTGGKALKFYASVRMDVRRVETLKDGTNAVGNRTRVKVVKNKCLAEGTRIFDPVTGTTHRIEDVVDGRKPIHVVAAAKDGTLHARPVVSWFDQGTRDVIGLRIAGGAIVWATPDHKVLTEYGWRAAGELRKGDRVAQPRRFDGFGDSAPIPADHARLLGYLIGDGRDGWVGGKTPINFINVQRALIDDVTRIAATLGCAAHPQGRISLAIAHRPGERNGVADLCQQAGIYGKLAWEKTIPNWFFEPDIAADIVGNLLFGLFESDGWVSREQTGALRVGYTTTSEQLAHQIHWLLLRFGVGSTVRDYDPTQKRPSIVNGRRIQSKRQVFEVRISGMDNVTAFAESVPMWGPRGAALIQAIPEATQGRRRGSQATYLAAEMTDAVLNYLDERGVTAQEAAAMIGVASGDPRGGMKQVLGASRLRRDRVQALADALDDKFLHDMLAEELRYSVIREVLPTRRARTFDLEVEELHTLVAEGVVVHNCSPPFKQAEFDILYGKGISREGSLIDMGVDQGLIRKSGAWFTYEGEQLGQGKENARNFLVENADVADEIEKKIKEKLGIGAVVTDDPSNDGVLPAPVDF

Hexokinase HKDC1 = Hexokinase HKDC1 (Homo sapiens, UniProt Q2TB90); assay: HKDC1 hexokinase inhibitors, dose response, biochemical, W721R variant (AID 504729); assay type: functional
[5] = biological target: Dual specificity protein phosphatase 3 (Homo sapiens, UniProt P51452); assay: VHR1 inhibitor Ki determination, SAR follow-up, biochemical, colorimetric (AID 2004)
[6] = biological target: SWI/SNF-related matrix-associated actin-dependent regulator of chromatin subfamily A member 2 (Homo sapiens, UniProt P51531); assay: Luminescence-based cell-based high throughput dose response assay to identify activators of the function of SWI/SNF related, matrix associated, actin dependent regulator of chromatin, subfamily a, member 2 (SMARCA2, BRM).; assay type: functional
[7] = biological target: Cyclin-dependent kinase 5/CDK5 activator 1 (Homo sapiens, UniProt Q00535); assay: CDK5/p35 kinase inhibitors, dose response, biochemical, cherry-picked samples, set 2 (AID 504545)
[8] = Counterscreen for activators of the function of SWI/SNF related, matrix associated, actin dependent regulator of chromatin, subfamily a, member 2 (SMARCA2, BRM): Luminescence-based cell-based high throughput dose response assay to identify non-selective compounds using the VP16 reporter assay.; assay type: functional
Protein Rev = Protein Rev (Human immunodeficiency virus type 1 group M subtype B (isolate HXB2)(HIV-1), UniProt P04618); assay: inhibitors of Rev binding to RRE RNA, dose response, biochemical, fluorescence polarization, HIV-1 (AID 434976); set-up: species or system Human immunodeficiency virus 1
[9] = biological target: Female germline-specific tumor suppressor gld-1 (Caenorhabditis elegans, UniProt Q17339); assay: inhibitors of GLD-1 binding to TGE RNA, dose response, biochemical, fluorescence polarization, C. elegans (AID 2802);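 also: fluorescence polarization of labeled TGE RNA bound by purified gld-1 protein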
[10] = Luminescence Cell-Based Dose Response HTS to Identify Inhibitors of 5'UTR Stem-Loop Driven Prion Protein mRNA Translation in H4 Neuroglioblastoma Cells. [Related pubchem assays: 1827 (Project Summary), 1813 (Primary HTS)]; assay type: functional
Vero = assay: cells; assay type: functional, cell-based; conditions: Chlorocebus sabaeus
[11] = biological target: Scavenger receptor class B member 1 (Mus musculus, UniProt Q61009); assay: inhibitors of SR-BI mediated HDL lipid uptake, dose response, ldlA[mSR-BI] cells, fluorescence, cherry pick (AID 493194); assay type: functional, cell-based;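 also: cellular uptake of fluorescent DiI-labeled HDL measured as cell fluorescence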
[12] = inhibitors of firefly luciferase expression or activity, dose response, H4 neuroglioma cells, luminescence (AID 1990); assay type: functional, cell-based
[13] = inhibitors of SNCA 5'UTR-driven reporter translation, confirmation, H4 neuroglioma cells, luminescence (AID 1988); assay type: functional, cell-based
[14] = biological target: T4, Voltage-gated N-type calcium channel alpha-1B subunit/Amyloid beta A4 precursor protein-binding family A member 1 (Homo sapiens, UniProt Q00975+Q02410); assay: disruptors of Mint-PDZ/N-type channel peptide interaction – biochemical, HTRF, SAR follow-up (AID 2489); assay type: functional
T4 sequence (Q00975 whole entry): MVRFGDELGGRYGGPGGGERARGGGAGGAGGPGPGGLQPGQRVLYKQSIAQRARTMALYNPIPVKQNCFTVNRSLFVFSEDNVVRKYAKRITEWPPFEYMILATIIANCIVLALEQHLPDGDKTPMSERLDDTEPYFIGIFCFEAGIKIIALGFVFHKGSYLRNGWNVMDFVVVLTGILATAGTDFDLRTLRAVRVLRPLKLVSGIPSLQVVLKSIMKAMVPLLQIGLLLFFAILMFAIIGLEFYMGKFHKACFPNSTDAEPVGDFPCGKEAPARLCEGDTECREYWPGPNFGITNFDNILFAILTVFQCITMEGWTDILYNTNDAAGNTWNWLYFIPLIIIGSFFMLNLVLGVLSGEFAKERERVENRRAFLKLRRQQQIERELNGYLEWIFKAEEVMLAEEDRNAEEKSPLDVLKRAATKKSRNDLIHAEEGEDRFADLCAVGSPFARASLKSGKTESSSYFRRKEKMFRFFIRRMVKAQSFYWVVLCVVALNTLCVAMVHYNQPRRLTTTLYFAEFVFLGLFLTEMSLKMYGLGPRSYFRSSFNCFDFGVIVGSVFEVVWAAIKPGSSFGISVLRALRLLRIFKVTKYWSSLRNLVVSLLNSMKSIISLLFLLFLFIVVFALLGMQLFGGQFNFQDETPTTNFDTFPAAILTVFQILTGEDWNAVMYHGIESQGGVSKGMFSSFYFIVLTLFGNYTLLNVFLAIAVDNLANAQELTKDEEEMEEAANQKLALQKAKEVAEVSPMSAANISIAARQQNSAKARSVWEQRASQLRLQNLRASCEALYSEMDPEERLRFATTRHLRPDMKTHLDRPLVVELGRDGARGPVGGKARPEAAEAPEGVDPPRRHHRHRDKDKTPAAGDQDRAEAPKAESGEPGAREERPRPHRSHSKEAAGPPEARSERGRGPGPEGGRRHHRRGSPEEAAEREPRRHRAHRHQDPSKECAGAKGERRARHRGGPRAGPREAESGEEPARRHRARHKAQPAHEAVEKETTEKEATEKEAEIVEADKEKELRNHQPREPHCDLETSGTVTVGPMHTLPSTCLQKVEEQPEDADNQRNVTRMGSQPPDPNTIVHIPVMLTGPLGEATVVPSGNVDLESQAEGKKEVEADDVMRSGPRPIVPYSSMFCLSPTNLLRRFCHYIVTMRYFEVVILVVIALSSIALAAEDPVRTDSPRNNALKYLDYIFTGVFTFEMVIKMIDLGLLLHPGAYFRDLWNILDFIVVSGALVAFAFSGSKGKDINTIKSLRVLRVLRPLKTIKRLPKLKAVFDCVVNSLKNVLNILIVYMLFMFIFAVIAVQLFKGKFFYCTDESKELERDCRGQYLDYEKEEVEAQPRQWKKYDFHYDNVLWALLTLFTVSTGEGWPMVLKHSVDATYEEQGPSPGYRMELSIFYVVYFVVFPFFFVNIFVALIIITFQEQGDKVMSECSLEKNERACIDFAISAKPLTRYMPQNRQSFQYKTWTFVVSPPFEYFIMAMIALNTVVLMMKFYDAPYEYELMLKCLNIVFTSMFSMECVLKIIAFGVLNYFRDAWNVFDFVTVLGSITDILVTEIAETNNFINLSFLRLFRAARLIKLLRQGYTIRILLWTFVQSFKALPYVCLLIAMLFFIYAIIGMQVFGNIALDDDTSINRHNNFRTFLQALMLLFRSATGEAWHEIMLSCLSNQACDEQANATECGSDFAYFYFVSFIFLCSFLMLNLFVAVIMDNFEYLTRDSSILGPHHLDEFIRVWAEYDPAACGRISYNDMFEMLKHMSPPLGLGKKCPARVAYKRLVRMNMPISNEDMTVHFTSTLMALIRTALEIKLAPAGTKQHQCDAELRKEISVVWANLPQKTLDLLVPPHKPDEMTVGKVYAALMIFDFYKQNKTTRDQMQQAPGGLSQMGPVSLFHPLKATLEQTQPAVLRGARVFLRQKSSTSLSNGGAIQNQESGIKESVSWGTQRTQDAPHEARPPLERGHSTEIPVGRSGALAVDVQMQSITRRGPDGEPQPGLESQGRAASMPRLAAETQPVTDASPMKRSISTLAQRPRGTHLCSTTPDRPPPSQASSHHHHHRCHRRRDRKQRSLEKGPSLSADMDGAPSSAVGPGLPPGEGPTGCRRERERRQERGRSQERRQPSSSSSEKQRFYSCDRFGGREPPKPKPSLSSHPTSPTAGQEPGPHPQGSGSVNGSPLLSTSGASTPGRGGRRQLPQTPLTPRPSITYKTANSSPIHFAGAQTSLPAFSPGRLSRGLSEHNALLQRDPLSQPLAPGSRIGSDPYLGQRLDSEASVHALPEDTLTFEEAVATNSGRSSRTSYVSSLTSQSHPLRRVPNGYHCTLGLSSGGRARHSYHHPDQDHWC
T4 sequence (Q02410 whole entry): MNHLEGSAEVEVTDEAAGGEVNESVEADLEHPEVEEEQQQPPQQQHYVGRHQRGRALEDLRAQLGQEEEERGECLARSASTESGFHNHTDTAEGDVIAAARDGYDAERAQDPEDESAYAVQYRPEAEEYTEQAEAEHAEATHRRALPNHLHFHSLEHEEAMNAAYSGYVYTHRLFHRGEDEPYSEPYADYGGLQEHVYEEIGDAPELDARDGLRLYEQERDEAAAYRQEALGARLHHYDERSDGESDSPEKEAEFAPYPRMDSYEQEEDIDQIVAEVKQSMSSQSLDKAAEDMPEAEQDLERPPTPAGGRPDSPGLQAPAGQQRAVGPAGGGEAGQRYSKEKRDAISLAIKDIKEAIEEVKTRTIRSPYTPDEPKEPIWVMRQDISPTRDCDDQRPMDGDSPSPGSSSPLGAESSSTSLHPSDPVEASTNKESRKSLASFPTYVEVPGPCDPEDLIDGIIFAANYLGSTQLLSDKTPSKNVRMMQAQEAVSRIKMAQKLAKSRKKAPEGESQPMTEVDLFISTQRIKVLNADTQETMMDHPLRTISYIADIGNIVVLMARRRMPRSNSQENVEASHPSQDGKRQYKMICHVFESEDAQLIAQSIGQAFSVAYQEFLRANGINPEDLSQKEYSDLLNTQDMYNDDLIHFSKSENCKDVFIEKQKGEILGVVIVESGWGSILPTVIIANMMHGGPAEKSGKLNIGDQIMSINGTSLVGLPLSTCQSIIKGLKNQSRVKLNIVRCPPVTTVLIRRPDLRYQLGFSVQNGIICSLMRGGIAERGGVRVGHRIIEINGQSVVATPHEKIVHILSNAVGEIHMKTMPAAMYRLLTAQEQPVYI

[15] = biological target: T4, Voltage-gated N-type calcium channel alpha-1B subunit/Amyloid beta A4 precursor protein-binding family A member 1; assay: disruptors of Mint-PDZ/N-type channel peptide interaction – biochemical, HTRF, set 2, SAR follow-up (AID 434980); assay type: functional
Mu-type opioid receptor [16] = biological target: T5, Mu-type opioid receptor (Homo sapiens, UniProt P35372); assay: MOR agonists by imaging, SAR follow-up, image-based (AID 2352); assay type: functional
T5 sequence (P35372 whole entry): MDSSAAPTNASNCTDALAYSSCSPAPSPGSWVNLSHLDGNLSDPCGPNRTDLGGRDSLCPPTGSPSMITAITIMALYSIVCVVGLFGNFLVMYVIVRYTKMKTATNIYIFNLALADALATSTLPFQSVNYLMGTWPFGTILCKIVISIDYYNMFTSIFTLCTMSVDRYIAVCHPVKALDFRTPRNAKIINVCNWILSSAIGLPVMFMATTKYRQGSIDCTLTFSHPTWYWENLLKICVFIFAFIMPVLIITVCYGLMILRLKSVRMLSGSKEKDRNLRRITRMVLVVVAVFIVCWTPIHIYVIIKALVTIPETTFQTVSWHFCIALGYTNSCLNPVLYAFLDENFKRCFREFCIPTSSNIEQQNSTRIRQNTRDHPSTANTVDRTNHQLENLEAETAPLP

[17] = biological target: T6, Delta-type opioid receptor (Homo sapiens, UniProt P41143); assay: DOR antagonists, SAR follow-up, image-based (AID 2357); assay type: functional
T6 sequence (P41143 whole entry): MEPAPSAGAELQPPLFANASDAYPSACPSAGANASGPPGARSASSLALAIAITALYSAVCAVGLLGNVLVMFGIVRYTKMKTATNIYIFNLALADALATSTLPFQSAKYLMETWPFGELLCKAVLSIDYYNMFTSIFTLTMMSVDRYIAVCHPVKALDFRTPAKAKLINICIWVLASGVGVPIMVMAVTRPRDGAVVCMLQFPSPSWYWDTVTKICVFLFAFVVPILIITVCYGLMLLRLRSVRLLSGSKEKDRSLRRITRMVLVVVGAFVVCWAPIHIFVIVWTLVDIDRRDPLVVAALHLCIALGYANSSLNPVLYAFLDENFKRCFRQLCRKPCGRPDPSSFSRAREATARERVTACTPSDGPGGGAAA

[18] = biological target: T7, Kappa-type opioid receptor (Homo sapiens, UniProt P41145); assay: kappa opioid receptor blockers, cell-based, luminescence, beta-arrestin, SAR follow-up (AID 2285); assay type: functional
T7 sequence (P41145 whole entry): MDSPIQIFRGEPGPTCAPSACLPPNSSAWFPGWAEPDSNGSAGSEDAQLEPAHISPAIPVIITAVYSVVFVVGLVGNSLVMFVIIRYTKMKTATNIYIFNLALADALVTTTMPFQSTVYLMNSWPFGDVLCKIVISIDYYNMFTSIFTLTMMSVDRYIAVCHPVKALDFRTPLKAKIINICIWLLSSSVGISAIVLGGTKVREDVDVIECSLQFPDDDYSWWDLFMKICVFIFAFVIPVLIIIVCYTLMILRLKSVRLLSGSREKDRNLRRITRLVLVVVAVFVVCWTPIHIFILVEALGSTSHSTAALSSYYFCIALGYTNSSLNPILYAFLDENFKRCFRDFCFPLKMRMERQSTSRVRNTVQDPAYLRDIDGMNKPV

[19] = biological target: T7, Kappa-type opioid receptor; assay: KOR antagonists by imaging, SAR follow-up, image-based (AID 2348); assay type: functional
[20] = biological target: T6, Delta-type opioid receptor; assay: DOR agonists, SAR follow-up, image-based (AID 2370); assay type: functional
[21] = biological target: T7, Kappa-type opioid receptor; assay: KOR agonist analogs, imaging readout, SAR follow-up, image-based (AID 2359); assay type: functional
Mu-type opioid receptor [22] = biological target: T5, Mu-type opioid receptor; assay: MOR antagonists, SAR follow-up, image-based (AID 2420); assay type: functional;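 also: compounds added before stimulation of receptor with agonist DAMGO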
Wee1-like protein kinase = Wee1-like protein kinase (Homo sapiens, UniProt P30291); assay: G2/M cell cycle arrest in HeLa, late-stage follow-up, mechanism study for Wee1 degradation inhibitor project, FACS, panel member Wee1 Degradation (AID 2088)
[23] = biological target: G2/mitotic-specific cyclin-B1 (Homo sapiens, UniProt P14635); assay: G2/M cell cycle arrest in HeLa, late-stage follow-up, mechanism study for Wee1 degradation inhibitor project, FACS, panel member Cyclin B Degradation (AID 2088)
Trypsin = Trypsin (Sus scrofa, UniProt P00761); assay: porcine trypsin inhibitors, dose response, selectivity assay for Rce1 protease inhibitor project, biochemical, quenched peptide fluorescence, cherry-pick (AID 488789)

Structure (SMILES): CCOc1ccc(N(C)c2ccc(/C=C3/SC(=S)NC3=O)cc2)cc1
- EC50 (Streptococcus): 20.7 µM (active)
- IC50 [1]: 0.701 µM (active)
- EC50 [2]: 5.43 µM (active)
- EC50 (Streptokinase A): > 150 µM (not active)

Structure (SMILES): Cc1cc(C)n(-c2nc(N(c3ccccc3)c3ccccc3)nc(-n3nc(C)cc3C)n2)n1
- EC50 [3]: 6.21 µM (active)

Structure (SMILES): O=c1c2ccccc2nc(/C=C/c2cccnc2)n1CCc1ccccc1
- AC50 [4]: 60.6 µM (active)
- EC50 (Protein RecA): 12 µM (active)
- IC50 (Hexokinase HKDC1): 17.5 µM (active)

Structure (SMILES): COC(=O)c1ccc(COc2cc3oc(=O)cc(-c4ccccc4)c3cc2Cl)cc1
- Ki [5]: 28.9 µM (inactive)

Structure (SMILES): CC(C)[C@H](CO)Nc1nc(NCc2ccc(S(N)(=O)=O)cc2)c2ncn(C(C)C)c2n1
- EC50 [6]: > 91.2 µM (inactive)
- AC50 [7]: 1.93 µM (active)
- EC50 [8]: > 91.2 µM (inactive)

Structure (SMILES): Cc1ccc(S(=O)(=O)Nc2cc3c(C(=O)Nc4ccccc4)c(C)oc3c3ccccc23)cc1
- IC50 (Protein Rev): > 75.4 µM (not active)
- IC50 [9]: 0.725 µM (active)

Structure (SMILES): Cc1cc(SC(C)C(=O)Nc2ncc(Cl)cc2Cl)nc2ccccc12 (stereo unspecified)
- EC50 [10]: > 120 µM (not active)
- IC50 (Vero): 19.5 µM (active)
- AC50 [11]: 0.633 µM (active)
- EC50 [12]: > 120 µM (not active)
- EC50 [13]: 15.1 µM (active)

Structure (SMILES): COc1ccccc1CNC(=O)COC(=O)c1cccc2ccccc12
- IC50 [14]: > 56.8 µM (inactive)
- IC50 [15]: 19.4 µM (active)

Structure (SMILES): O=C(Cn1c(=O)c2cccn2c2cccnc21)NCCCN1CCN(c2ccc(F)cc2)CC1
- EC50 (Mu-type opioid receptor [16]): > 32 µM (inactive)
- IC50 [17]: > 32 µM (inactive)
- IC50 [18]: > 10 µM (inactive)
- IC50 [19]: 15.2 µM (inactive)
- EC50 [20]: > 32 µM (inactive)
- EC50 [21]: > 32 µM (inactive)
- IC50 (Mu-type opioid receptor [22]): > 32 µM (inactive)

Structure (SMILES): Cc1cc(NC(=O)c2cccc(F)c2)n(-c2nc(=O)cc(C)[nH]2)n1
- EC50 (Wee1-like protein kinase): > 49.7 µM (inactive)
- EC50 [23]: > 49.7 µM (inactive)

Structure (SMILES): Cc1ccc(S(=O)(=O)c2cn(C)c3cc(N4CCOCC4)c(F)cc3c2=O)cc1
- AC50 (Trypsin): 55.8 µM (active)
